For data set [1] the following is noted: 0.25% di-sodium edetate admixed; 60° C., up to 28 days; at the metabisulfite levels contemplated. On the procedure: (§1) A 1.1 mg/ml solution of adrenaline (6.004×10^−3 M), in the form of the tartrate, pH 3.4 and containing 0.6% sodium chloride was used. A range of metabisulfite antioxidant concentrations, with and without admixture of 0.25% di-sodium edetate as chelating agent were tested. The metabisulfite/adrenaline molar ratios tested were 0.1, 0.2, 0.5, 1.0 and 1.5, which correspond to sulfite/adrenaline ratios of 0.2, 0.4, 1.0, 2.0 and 3.0, respectively. For the ease of reference to the general description and claims of this specification, the said values correspond to a molar ratio of adrenaline to sulfite of 5.0, 2.5, 1.0, 0.5 and 0.33, respectively.
The accelerated test temperature was 60° C., protected from light, and samples were pulled at 0, 7, 14, 21 and 28 days. At each pull point, the appearance of the test solution was assessed, the pH measured and the solution assayed for adrenaline content. The appearance of degradation products was noted as area %.
[adr]^+ relates to samples containing 0.025% di-sodium edetate, whereas [adr] relates to samples containing no chelating agent.

Data set [2] in a line: Further stability testing, thermal stress at 60° C. protected from light (Example 3). It counts as physicochemical. On the procedure: (§2) The formulation solutions were prepared at a level of 1.0 mg/ml adrenaline (in the form of the tartrate), pH 3.4 containing 0.6% sodium chloride, with various molar ratios (0.25-0.59) of sodium metabisulfite added. The metabisulfite/adrenaline molar ratios tested were 0.25, 0.34, 0.42, 0.5 and 0.59, which correspond to sulfite/adrenaline ratios of 0.5, 0.68, 0.84, 1.0 and 1.18, respectively. For the ease of reference to the general description and claims of this specification, the said values correspond to a molar ratio of adrenaline to sulfite of 2.0, 1.47, 1.19, 1.0 and 0.85, respectively.
(§3) Each sample solution was split into two lots. For each sample solution, one lot was placed at the accelerated test temperature of 60° C., protected from light and the other lot placed in a photo-stability cabinet at 25° C. which provided 13400 lux visible light, 1.50 W·h/m^2 UV. Samples were pulled from both conditions at 0, 7, 14 and 28 days At each pull point, the appearance of the test solution was assessed, the pH measured and the adrenaline content measured together with impurities.

The conditions of data set [3]: 1.0 mg/ml adrenaline (tartrate), pH 3.4, 0.6% sodium chloride; 25° C., 13400 lux visible light, 1.50 W·h/m^2 UV, up to 28 days. On the procedure:
as §2, §3

For data set [4] the following is noted: 60° C., weeks 0-4; FIGS. 8 and 9. On the procedure:
as §1
The accelerated test temperature was 60° C., protected from light, and samples were pulled at 0, 7, 14, 21 and 28 days. At each pull point, the appearance of the test solution was assessed, the pH measured and the solution assayed for adrenaline content. The appearance of degradation products was noted as area %. […]
Each sample solution was split into two lots. […] Samples were pulled from both conditions at 0, 7, 14 and 28 days At each pull point, the appearance of the test solution was assessed, the pH measured and the adrenaline content measured together with impurities.

For data set [5] the following is noted: auto-oxidation rate increases with pH.

Molecules are shown by their SMILES.

`O=C([O-])CN(CCN(CC(=O)[O-])CC(=O)O)CC(=O)O.[Na+].[Na+]` [di-sodium edetate]: in data set [1], the “advantage of chelating agent for adrenaline solution stability” value is “no advantage”.
With `CNC[C@H](O)c1ccc(O)c(O)c1` [epinephrine, (R)-4-(1-hydroxy-2-(methylamino)ethyl)benzene-1,2-diol], the “best metabisulfite:adrenaline ratio on the basis of total impurities from heat stress” value in data set [2] (1.0 mg/ml adrenaline (tartrate), pH 3.4, 0.6% sodium chloride, 60° C., up to 28 days) stood at 0.42. Further, the “first choice of metabisulfite content with respect to adrenaline” value in data set [2] (considering both stresses (thermal 60° C. and photo-stress), loss of adrenaline, FIGS. 4 and 5) is “half molar”. The “best metabisulfite:adrenaline ratio on the basis of total impurities from photo-stress” value in data set [3] came to 0.5. Besides, the “optimum sulfite:adrenaline ratio” value in data set [4] is recorded as “about 1.0”. The “pH for maximum stability of epinephrine in solution” value in data set [5] is on record as “about 3.4”.

(Values after US9155694B2, “Stabilized composition comprising at least one adrenergic compound” (ALK AG, priority 2009, dated 2015).)
